This note sets out measurements from ChEMBL document CHEMBL1201862, “PubChem BioAssay data set” (2004).

The source made the active and inactive calls.

Data set [1] deals with BJ. In words: BJ-TERT fibroblast viability loss – cell-based, RAS-independent, luminescence, dose response (AID 1933). The note with it: Homo sapiens. Type of data set: functional.
Data set [2] deals with BJ. Description: cells. The format is functional, cell-based. The following applies: Homo sapiens.
Data set [3] relates to BJ. Description: BJ-TERT-LT-ST fibroblast viability loss – cell-based, RAS-independent, luminescence, dose response (AID 1935).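 Also: BJ fibroblasts immortalized with TERT plus LT and ST oncogenes.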 The format is functional. The note with it: Homo sapiens.
Data set [4] in a line: DRD fibroblast viability loss – cell-based, non-viral oncogenic, luminescence, dose response (AID 1934). The note with it: Homo sapiens. The format is functional.
The target in data set [5] is T1, Microphthalmia-associated transcription factor (Homo sapiens, UniProt O75030).
T1 sequence (O75030 whole entry): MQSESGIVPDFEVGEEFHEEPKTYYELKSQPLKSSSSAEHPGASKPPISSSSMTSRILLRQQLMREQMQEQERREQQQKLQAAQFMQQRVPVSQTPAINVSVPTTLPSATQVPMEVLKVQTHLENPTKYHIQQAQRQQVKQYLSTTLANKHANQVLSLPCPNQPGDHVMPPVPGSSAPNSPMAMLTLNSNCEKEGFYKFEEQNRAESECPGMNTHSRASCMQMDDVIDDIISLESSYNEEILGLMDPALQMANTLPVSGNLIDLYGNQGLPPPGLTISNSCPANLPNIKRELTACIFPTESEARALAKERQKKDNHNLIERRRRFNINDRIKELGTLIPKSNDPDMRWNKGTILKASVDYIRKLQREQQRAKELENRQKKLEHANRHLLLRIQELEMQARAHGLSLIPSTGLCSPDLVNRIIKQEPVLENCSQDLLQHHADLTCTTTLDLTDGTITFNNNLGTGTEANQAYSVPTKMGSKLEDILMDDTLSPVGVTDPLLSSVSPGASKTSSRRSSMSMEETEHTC
In words: reducers of TRPM1 reporter luminescence, concentration series – cell-based, SK-MEL-5, cherry-picked, set 3, MITF inhibitor project, dose response (AID 493073).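 Also: SK-MEL-5 melanoma cells with luciferase driven by the MITF target TRPM1 promoter.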 Type of data set: functional.

Another data set has as its system Vero. Description: cells. The format is functional. The following applies: Chlorocebus sabaeus.
The next data set has as its target T2, Caspase-6 (Homo sapiens, UniProt P55212).
T2 sequence (P55212 whole entry): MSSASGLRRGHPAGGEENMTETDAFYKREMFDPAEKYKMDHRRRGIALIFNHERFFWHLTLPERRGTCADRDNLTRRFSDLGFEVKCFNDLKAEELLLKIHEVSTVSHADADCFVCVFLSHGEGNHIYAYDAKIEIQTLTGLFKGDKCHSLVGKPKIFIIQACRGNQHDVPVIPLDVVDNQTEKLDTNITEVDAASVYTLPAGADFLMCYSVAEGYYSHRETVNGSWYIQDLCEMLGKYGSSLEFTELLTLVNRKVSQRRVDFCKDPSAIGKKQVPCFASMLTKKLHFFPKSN
Description: inhibition of CASP6 peptide cleavage – biochemical, VEID-R110 fluorescence, cherry-pick, dose response (AID 720632).

Data set [6] is described as follows: A549 cell cytotoxicity, dose response, cytotoxicity control, plate reader, cherry-pick, antagonist series (AID 743412). Type of data set: functional, cell-based.
Data set [7] in a line: toxicity toward HepG2 liver cells – cell-based, plate reader, cherry-pick, antagonist series, cytotoxicity control, dose response (AID 743416). The format is functional.
The nature of data set [8]: blockers of bursicon-stimulated LGR2 cAMP reporter – cell-based, HEK293, CRE-luciferase reporter, cherry pick, set 2, dose response (AID 743343).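 Also: transfected cells were stimulated with diluted bursicon conditioned medium after compound addition.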 Type of data set: functional. For orientation: A reporter such as luciferase makes a cellular process visible.
The nature of data set [9]: blockade of melanocortin 4 receptor signaling – cell-based, plate reader, cherry pick, counter-screen for LGR2 antagonist project, dose response (AID 743444).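 Also: transfected HEK 293 cells stimulated with alpha-MSH peptide; potency of inhibitors of the alpha-MSH evoked signal.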 Type of data set: functional. Background: Counterscreens check selectivity or assay interference.
Data set [10] is described as follows: viability loss in HEK293 cells – cell-based, plate reader, cherry-picked samples, cytotoxicity control, dose response (AID 743446). The format is functional.
Another data set concerns the target T3, Aminopeptidase N (Plasmodium falciparum FcB1/Columbia, UniProt O96935).
T3 sequence (O96935 whole entry): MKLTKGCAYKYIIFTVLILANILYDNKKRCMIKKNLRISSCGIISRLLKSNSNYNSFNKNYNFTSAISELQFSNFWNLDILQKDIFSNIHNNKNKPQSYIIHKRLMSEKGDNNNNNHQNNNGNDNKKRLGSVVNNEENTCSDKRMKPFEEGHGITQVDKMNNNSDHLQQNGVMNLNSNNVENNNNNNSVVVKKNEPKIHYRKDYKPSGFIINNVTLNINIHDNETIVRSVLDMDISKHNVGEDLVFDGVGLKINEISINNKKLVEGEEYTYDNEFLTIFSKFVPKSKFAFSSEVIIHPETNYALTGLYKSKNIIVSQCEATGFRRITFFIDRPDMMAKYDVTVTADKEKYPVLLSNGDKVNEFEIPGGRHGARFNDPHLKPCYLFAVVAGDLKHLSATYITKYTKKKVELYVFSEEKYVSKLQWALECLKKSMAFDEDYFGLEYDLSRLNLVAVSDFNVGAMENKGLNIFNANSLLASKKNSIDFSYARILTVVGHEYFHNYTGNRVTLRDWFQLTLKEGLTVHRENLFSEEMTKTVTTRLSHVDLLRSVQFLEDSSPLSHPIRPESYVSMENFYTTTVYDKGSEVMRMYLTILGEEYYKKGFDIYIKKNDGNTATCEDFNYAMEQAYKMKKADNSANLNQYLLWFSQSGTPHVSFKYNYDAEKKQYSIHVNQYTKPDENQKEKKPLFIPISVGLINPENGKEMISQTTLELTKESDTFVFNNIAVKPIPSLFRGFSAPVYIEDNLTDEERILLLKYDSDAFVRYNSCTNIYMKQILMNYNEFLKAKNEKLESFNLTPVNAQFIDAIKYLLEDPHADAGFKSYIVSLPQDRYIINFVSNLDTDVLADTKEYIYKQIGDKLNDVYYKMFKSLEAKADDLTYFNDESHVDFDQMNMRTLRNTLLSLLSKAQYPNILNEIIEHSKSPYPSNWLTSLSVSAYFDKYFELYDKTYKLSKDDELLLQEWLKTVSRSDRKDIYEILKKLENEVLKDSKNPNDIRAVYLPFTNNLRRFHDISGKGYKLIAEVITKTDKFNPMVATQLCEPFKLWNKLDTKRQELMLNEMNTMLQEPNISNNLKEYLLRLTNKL
In words: malaria alanyl aminopeptidase activity blockers – biochemical, fluorogenic H-Leu-NHMec substrate, 1536-well (AID 1445). Details: species or system Plasmodium falciparum 3D7, 3D7.

In data set [11] the target is DNA dC->dU-editing enzyme APOBEC-3A (Homo sapiens, UniProt P31941). In words: Dose Response confirmation of small molecule APOBEC3A DNA Deaminase Inhibitors via a fluorescence-based single-stranded DNA deaminase assay. [Related pubchem assays (depositor defined):AID493011, AID493024]. Type of data set: functional.
For data set [12], the target named is DNA dC->dU-editing enzyme APOBEC-3G (Homo sapiens, UniProt Q9HC16). The format is functional.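 Also: Dose-response counterscreen measuring inhibition of APOBEC3G DNA deaminase activity, run while confirming APOBEC3A inhibitors.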
In data set [13] the test system is Streptococcus sp. 'group A'. Description: Streptococcus pyogenes SK(-)GAS viability under kanamycin – luminescence, BacTiterGlo, confirmation, counter-screen for streptokinase expression inhibitor project, dose response (AID 1900). The format is functional, organism-based.
Data set [14] can be described thus: cells. Type of data set: functional, cell-based.
The nature of data set [15]: cells. Type of data set: functional, cell-based. The source holds these as a separate data set.
A further data set concerns Streptococcus. In words: GAS UMAA2166 growth inhibition – luminescence, BacTiterGlo, counter-screen for streptokinase expression inhibitor project, dose response (AID 1915).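 Also: potency for reduction of bacterial viability or growth.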 Type of data set: functional, organism-based.
The target in a further data set is Nonstructural protein 1 (Influenza A virus, UniProt Q194T2). The format is functional, Influenza A virus (A/California/07/2009(H1N1)).
The nature of data set [16]: growth inhibition of yeast DHODH-expressing 3D7 parasites – SYBR Green, dry powder samples, dose response (AID 1159570).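 Also: parasite growth measured after 72 hours of compound exposure.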 The format is functional, cell-based.
Data set [17] in a line: P. falciparum Dd2 growth inhibitors, dose response, SYBR Green, cherry-picked samples (AID 1159567). Type of data set: functional, cell-based.
Data set [18] can be described thus: Dd2 malaria parasite growth inhibition potency – SYBR Green, dry powder samples, dose response (AID 1159566).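 Also: potency for growth inhibition with lower SYBR green DNA signal.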 Type of data set: functional, cell-based.
Data set [19] in a line: growth inhibition of PfATP4-mutant resistant parasites – NITD609-resistant line, SYBR Green, dry powder, dose response (AID 1159571).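 Also: parasites synchronized at ring stage by sorbitol before testing.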 Type of data set: functional, cell-based.
The target in a further data set is Cytochrome P450 3A4 (Homo sapiens, UniProt P08684).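 Also: CYP3A4 tested as one member of a cytochrome P450 panel screen.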
The target in a further data set is Cytochrome P450 2C9 (Homo sapiens, UniProt P11712).
Chain of Cytochrome P450 2C9 (P11712 whole entry): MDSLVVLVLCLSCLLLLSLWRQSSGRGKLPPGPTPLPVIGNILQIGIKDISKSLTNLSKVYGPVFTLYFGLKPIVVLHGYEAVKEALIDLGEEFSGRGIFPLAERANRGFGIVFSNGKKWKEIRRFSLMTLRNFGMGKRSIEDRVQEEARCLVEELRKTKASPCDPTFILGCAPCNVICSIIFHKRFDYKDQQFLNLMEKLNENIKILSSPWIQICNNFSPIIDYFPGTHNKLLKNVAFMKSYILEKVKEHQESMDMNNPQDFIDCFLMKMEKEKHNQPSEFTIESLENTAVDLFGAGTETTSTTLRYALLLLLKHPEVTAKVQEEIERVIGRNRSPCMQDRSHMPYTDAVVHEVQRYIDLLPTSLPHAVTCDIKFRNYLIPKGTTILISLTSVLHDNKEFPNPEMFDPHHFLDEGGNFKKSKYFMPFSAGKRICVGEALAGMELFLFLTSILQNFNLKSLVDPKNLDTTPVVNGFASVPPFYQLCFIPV

Chain of Nonstructural protein 1 (Q194T2 whole entry): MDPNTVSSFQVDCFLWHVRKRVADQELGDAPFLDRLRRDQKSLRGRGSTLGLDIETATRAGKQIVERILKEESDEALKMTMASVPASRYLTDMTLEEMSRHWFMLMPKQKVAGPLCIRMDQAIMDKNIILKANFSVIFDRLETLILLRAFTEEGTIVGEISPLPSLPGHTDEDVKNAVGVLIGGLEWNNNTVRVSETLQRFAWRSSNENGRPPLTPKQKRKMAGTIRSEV
Chain of Cytochrome P450 3A4 (P08684 whole entry): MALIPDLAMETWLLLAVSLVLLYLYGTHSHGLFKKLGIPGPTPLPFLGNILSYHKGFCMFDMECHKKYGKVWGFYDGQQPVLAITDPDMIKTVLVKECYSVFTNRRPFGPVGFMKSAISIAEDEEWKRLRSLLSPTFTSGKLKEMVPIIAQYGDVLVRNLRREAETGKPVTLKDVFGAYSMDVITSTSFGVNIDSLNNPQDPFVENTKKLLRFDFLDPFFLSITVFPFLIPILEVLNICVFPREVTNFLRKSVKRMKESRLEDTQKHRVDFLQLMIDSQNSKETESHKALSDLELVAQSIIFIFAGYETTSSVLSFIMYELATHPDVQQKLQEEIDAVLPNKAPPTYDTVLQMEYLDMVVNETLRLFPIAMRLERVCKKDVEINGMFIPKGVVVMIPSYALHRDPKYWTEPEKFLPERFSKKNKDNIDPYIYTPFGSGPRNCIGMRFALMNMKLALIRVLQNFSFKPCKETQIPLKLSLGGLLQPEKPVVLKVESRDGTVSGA
Chain of DNA dC->dU-editing enzyme APOBEC-3G (Q9HC16 whole entry): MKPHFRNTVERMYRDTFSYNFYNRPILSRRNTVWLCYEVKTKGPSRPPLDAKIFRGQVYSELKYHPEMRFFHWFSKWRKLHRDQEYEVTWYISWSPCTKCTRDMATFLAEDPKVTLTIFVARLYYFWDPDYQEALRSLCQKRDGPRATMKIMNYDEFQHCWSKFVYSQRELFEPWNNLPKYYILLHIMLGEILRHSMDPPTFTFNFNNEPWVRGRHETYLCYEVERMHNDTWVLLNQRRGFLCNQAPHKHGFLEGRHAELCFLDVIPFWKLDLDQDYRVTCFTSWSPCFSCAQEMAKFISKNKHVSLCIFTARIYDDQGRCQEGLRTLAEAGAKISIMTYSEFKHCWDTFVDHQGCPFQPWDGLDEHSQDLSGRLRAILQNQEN
Chain of DNA dC->dU-editing enzyme APOBEC-3A (P31941 whole entry): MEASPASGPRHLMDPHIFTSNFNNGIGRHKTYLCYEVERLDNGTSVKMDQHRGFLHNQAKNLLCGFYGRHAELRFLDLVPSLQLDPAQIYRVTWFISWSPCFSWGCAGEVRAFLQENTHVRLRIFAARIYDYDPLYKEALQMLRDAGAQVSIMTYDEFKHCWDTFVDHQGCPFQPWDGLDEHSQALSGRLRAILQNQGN

With `O=S(=O)(c1ccc(F)cc1)c1snnc1-c1ccccc1`, the EC50 in the data set with BJ [1] was 4.69 µM (inconclusive); in the data set with BJ [2], 6.66 µM (inconclusive); with BJ [3], 6.51 µM (inconclusive); in [4], 7.55 µM (active). Further, the AC50 in [5] was 15.1 µM (active); on Caspase-6, 6.26 µM (active); in data set [6], 11.1 µM (active); in [7], 46.5 µM (active); in data set [8], 9.39 µM (active); in data set [9], 5.8 µM (active). Further, the concentration at half-maximal activity (AC50) in data set [10] was 4.15 µM (active). In addition, the CC50 in the data set with Vero was 6.75 µM (active).

With `Cc1cccc(NC(=O)N(Cc2cc3cc(C)ccc3[nH]c2=O)CC2COCCO2)c1` (stereo not drawn), on Aminopeptidase N, the IC50 was 45.9 µM (active).

For `CSc1nnc(-c2ccncc2)n1CCCN1CCCC1=O`, the IC50 is 2.76 µM (active) in [11] and 3.35 µM (active) in [12].

Consider `O=C(N/N=C/c1cc(Br)ccc1O)c1ccncc1`, for which the IC50 was 7.95 µM (active) at Aminopeptidase N and 5.51 µM (active) on Nonstructural protein 1. The EC50 was 3 µM (active) in data set [13], 17.7 µM (active) in the data set “cells [14]”, > 350 µM (not active) in the data set “cells [15]” and 3.78 µM (active) in the data set with Streptococcus. Further, in data set [5], the AC50 was 9.36 µM (active).

Consider `COc1ccc(NC(=O)N2CCCCN3[C@H](CO)[C@H](c4ccc(C#Cc5ccccn5)cc4)[C@@H]3C2)cc1`, for which the half-maximal activity concentration (AC50) in data set [16] is 0.109 µM (active); in [17], 0.301 µM (active); in [18], 0.131 µM (active); in data set [19], 0.109 µM (active).

`Cc1ccc(S(=O)(=O)N2CCC(C(=O)NCCCOC(C)C)CC2)cc1`: the half-maximal activity concentration (AC50) on Cytochrome P450 3A4 was 25.1 µM (inconclusive); on Cytochrome P450 2C9, “inconclusive”.

Consider `CC(C)CNC(=O)CCCc1c[nH]c2ccccc12.O=C(O)C(=O)O`, for which the AC50 entry on Cytochrome P450 2C9 is reported as “inconclusive”.

As for `COc1ccc2c3c(n(C)c2c1)[C@@H](CO)N(CC1CCCCC1)CC31CCN(Cc2nccs2)CC1`, the AC50 is 0.835 µM (active) in data set [16], 1.12 µM (active) in data set [17], 1.03 µM (active) in data set [18] and 0.891 µM (active) in [19].

Broadly, the EC50 is the concentration giving half of the maximal effect. In general, AC50 refers to the midpoint of the concentration-response curve, whichever way the signal moves. By CC50 is commonly meant the concentration that lowers cell viability or growth by half. As usually defined, the IC50 is the concentration that inhibits the measured activity by half.
